Assays:
b.End3 monolayers = assay: Paracellular permeability across b.End3 monolayers in transwells and layered microfluidic devices
Method: The permeability of [^14C]-mannitol as a function of days across b.End3 cells cultured in transwells and layered microfluidic channels was measured. […] Consequently, mannitol has been routinely used to assess the paracellular permeability of epithelial and endothelial monolayers.
Permeability experiments were performed at 3, 6, 9, 12, 15, 18, and 21 days in culture for all three marker molecules with five replicates for both the transwells and the layered microfluidic devices. Briefly, cells grown in both the transwells and the layered microfluidic devices under static condition were removed from the incubator and washed twice by replacing culture medium with PBS solution. PBS solutions were then aspirated and replaced by the designated solution with radioactively labeled marker molecules at the apical (top) compartment. All transwells and layered microfluidic devices were then placed onto the shaker at 100 rpm inside the incubator at 37° C., 95% air, and 5% CO2 for a total of 60 minutes. At every 10 minute interval, the transwells and the layered microfluidic devices were taken out of the incubator; the PBS solutions from the basolateral compartments were collected and replaced by fresh PBS solutions. At the end of the 1 hour incubation time, the solutions in both the apical and basolateral compartments were collected. All the samples collected during the experiments were measured using liquid scintillation counter which evaluates the radioactivity of each sample in the unit of count per minute (CPM). CPMs from all samples are then converted into concentration using the standard dilution scheme.
The permeability of a given molecule across the monolayer was calculated by suing a derived form of a differential equation based on Fick's Law: […]
The unit of measurement cm/s for permeability coefficient is commonly used.

b.END.3 cell monolayer = assay: TEER / impedance of b.END.3 cell monolayer after chemical treatment in microfluidic chip; type: cell-based, mouse
Method: Cell Seeding and Culture. Epithelial (MDCK-2) and endothelial (b.END.3) cell lines were selected because they offered well characterized and accepted TEER values to compare with the experimental results. […] All cell lines were cultured in endothelial growth media (DMEM with 10% fetal bovine serum and 1% penicillin/streptomycin) prior to seeding in the microfluidic chip. The microfluidic chip was exposed to plasma oxygen for 5 min to make hydrophilic. Prior to cell seeding, fibronectin solution (Invitrogen) at a concentration of 100 μg/mL in phosphate buffered saline (PBS) was injected into the upper (endothelial) channel to promote cell adhesion. The lower channel was preloaded with growth media. […]
Resolving TEER from Circuit Model. In order to resolve the TEER value from the experimental impedance spectra, the control impedance spectra (taken from the same chip just before cell seeding) was subtracted from the measured impedance spectra (with cells) to eliminate the effect from electrolyte, membrane, and electrode-electrolyte interfaces and simplify the analysis. […]

Molecule	lower permeability in layered microfluidic channels compared to transwells (b.End3 monolayers; Example 2, b.End3, as a function of days in culture (FIG. 11))	lower permeability across b.End3 monolayers in layered microfluidic devices compared to transwells (b.End3 monolayers; Example 5, after 9 days in culture (FIG. 11A))	permeability relative to the large markers in layered microfluidic devices (size selectivity) (b.End3 monolayers; day 3 and day 6 in culture (FIG. 11E))	impedance of the entire system following treatment (b.END.3 cell monolayer; all frequency points, 30 min, 0.1% in DMEM)	TEER (paracellular resistance) after treatment (b.END.3 cell monolayer; b.END.3 monolayer treated 30 min with 0.1% in DMEM, before treatment 161.51±0.755 Ωcm^2)
OC[C@@H](O)[C@@H](O)[C@H](O)[C@H](O)CO [[^14C]-mannitol, [^14C]-D-Mannitol]	15 fold	10 fold	higher permeability	–	–
TritonX-100	–	–	–	decreased significantly	39.73±1.925 Ωcm^2

— patent US20120211373A1, “MICROFLUIDIC SYSTEM FOR MEASURING CELL BARRIER FUNCTION” (THE REGENTS OF THE UNIVERSITY OF MICHIGAN, priority 2011, published 2012)
